# Where “and” joins values, the source holds several entries; their conditions need not be identical. Equal entries are not always repeated. *1 amine or outer side, *2 acyl side, *3 side chain or, on linkers, in order; H or OH if unused. Where a SMILES comes first, the peptide text is derived from it. [ ]: non-standard residue; d: D form. The star is where a group is joined. NH(1-deoxy-D-glucityl) = OC[C@@H](O)[C@@H](O)[C@H](O)[C@@H](O)CN*; DOTA = O=C(O)CN1CCN(CC(=O)O)CCN(CC(=O)*)CCN(CC(=O)O)CC1; Pteroyl = Nc1nc2ncc(CNc3ccc(C(=O)*)cc3)nc2c(=O)[nH]1; γGlu = O=C(O)[C@H](CCC(=O)[*:2])N[*:1]; βAsp = O=C(O)[C@H](CC(=O)[*:2])N[*:1]; Dap = NC[C@H](N)C(=O)O
# What was measured:
# [1] = system: KB tumor; experiment: In vivo biodistribution in mice bearing KB tumors; conditions: 225Ac chelate, 30 nmol/kg
# [2] = system: FR-positive M109 tumor; experiment: In vivo biodistribution in mice bearing M109 tumors
# Text: Four- to eight-week-old female nu/nu mice or NSG mice (Harlan Sprague-Dawley, Inc.) were maintained on a standard 12-h light-dark cycle and fed ad libitum with Folate deficient purified rodent diet (TestDiet #AIN-93G) for the duration of the experiment. FR-positive M109 or FR-negative HT29 tumor cells were inoculated in the subcutis dorsal medial area of mice. The biodistribution studies were typically performed when tumors were approximately 400-800 mm^3 in volume. Mice were divided into groups of three, and freshly prepared test articles and competitors were injected through the lateral tail vein in a volume of 100 μL/10 g of PBS. Four h to six days post radioactive-agent dose administration, mice were euthanized and organs (blood, heart, lungs, liver, spleen, and kidneys, intestine, stomach, muscle, brain and tumor) were collected, weighed and placed inside counting vials. Each tissue sample was counted for the activities of radioelement using a gamma-counter. Samples of the injectate were used as decay correction standards. Final bar graphs are expressed as % injected dose per gram of tissue or tumor to kidney ratio, or % tumor to (kidneys+liver+spleen) ratio.
SMILES,T/Kid [1],T/Liv [1],T/spl [1],"T/Kid ([2]; 177Lu chelate, 100 nmol/kg)","T/spl ([2]; 177Lu chelate, 100 nmol/kg)","T^2/kid ([2]; 177Lu chelate, 100 nmol/kg)","T/Kid ([2]; 111In chelate, 100 nmol/kg)","T/Liv ([2]; 111In chelate, 100 nmol/kg)","T/spl ([2]; 111In chelate, 100 nmol/kg)","T^2/kid ([2]; 111In chelate, 100 nmol/kg)",further results
Nc1nc2ncc(CNc3ccc(C(=O)N[C@@H](CNC(=O)CN4CCN(CC(=O)O)CCN(CC(=O)O)CCN(CC(=O)O)CC4)C(=O)O)cc3)nc2c(=O)[nH]1 [Compound 3],0.04 +/− 0.01,0.5 +/− 0.3,6.8 +/− 2.9,0.30 +/− 0.04,10.6 +/− 1.8,1.6 +/− 0.4,,,,,"T/Liv ([2]; 177Lu chelate, 100 nmol/kg): 0.93 +/− 0.15"
Nc1nc2ncc(CNc3ccc(C(=O)N[C@@H](CNC(=O)CCC(C(=O)O)N4CCN(CC(=O)O)CCN(CC(=O)O)CCN(CC(=O)O)CC4)C(=O)O)cc3)nc2c(=O)[nH]1 (stereo partly shown) [Compound 5],0.09 +/− 0.02,3.5 +/− 1.9,19.9 +/− 10.9,0.22 +/− 0.08 and 0.16 +/− 0.01 and 0.25 +/− 0.07,25.3 +/− 11.4 and 14.6 +/− 3.0 and 24.4 +/− 8.8,1.6 +/− 1.0 and 1.1 +/− 0.3 and 2.0 +/− 1.2,,,,,
Nc1nc2ncc(CNc3ccc(C(=O)N[C@@H](CC(=O)N[C@@H](CCC(=O)NC[C@H](O)[C@@H](O)[C@H](O)[C@H](O)CO)C(=O)N[C@@H](CCC(=O)NC[C@H](O)[C@@H](O)[C@H](O)[C@H](O)CO)C(=O)N[C@@H](CCC(=O)NC[C@H](O)[C@@H](O)[C@H](O)[C@H](O)CO)C(=O)N[C@@H](CNC(=O)CN4CCN(CC(=O)O)CCN(CC(=O)O)CCN(CC(=O)O)CC4)C(=O)O)C(=O)O)cc3)nc2c(=O)[nH]1 [Compound 11] ({Pteroyl-βAsp}-E(NH(1-deoxy-D-glucityl))E(NH(1-deoxy-D-glucityl))E(NH(1-deoxy-D-glucityl))[Dap](DOTA)-OH),,,,,,,0.19 +/− 0.01,5.7 +/− 1.5,28.0 +/− 31^,1.0 +/− 0.14,
Nc1nc2ncc(CNc3ccc(C(=O)N[C@@H](CCC(=O)N[C@@H](CCC(=O)NC[C@H](O)[C@@H](O)[C@H](O)[C@H](O)CO)C(=O)N[C@@H](CCC(=O)NC[C@H](O)[C@@H](O)[C@H](O)[C@H](O)CO)C(=O)N[C@@H](CCC(=O)NC[C@H](O)[C@@H](O)[C@H](O)[C@H](O)CO)C(=O)N[C@@H](CNC(=O)CN4CCN(CC(=O)O)CCN(CC(=O)O)CCN(CC(=O)O)CC4)C(=O)O)C(=O)O)cc3)nc2c(=O)[nH]1 [Compound 13] ({Pteroyl-γGlu}-E(NH(1-deoxy-D-glucityl))E(NH(1-deoxy-D-glucityl))E(NH(1-deoxy-D-glucityl))[Dap](DOTA)-OH),,,,,,,0.22 +/− 0.06,6.4 +/− 1.5,31.9 +/− 7.6,1.7 +/− 1.1,
Nc1nc2ncc(CNc3ccc(C(=O)N[C@@H](CNC(=O)C[C@H](NC(=O)CN4CCN(CC(=O)O)CCN(CC(=O)O)CCN(CC(=O)O)CC4)C(=O)O)C(=O)O)cc3)nc2c(=O)[nH]1 [Compound 20],,,,0.21 +/− 0.01,16.4 +/− 1.9,1.5 +/− 0.3,,,,,"T/Liv ([2]; 177Lu chelate, 100 nmol/kg): 4.6 +/− 2.1"
Nc1nc2ncc(CNc3ccc(C(=O)N[C@@H](CCC(=O)NC[C@H](N)C(=O)N[C@@H](CC(=O)O)C(=O)N[C@@H](CSC4CC(=O)N(CCNC(=O)CN5CCN(CC(=O)O)CCN(CC(=O)O)CCN(CC(=O)O)CC5)C4=O)C(=O)O)C(=O)O)cc3)nc2c(=O)[nH]1 (stereo partly shown) [Compound 25],0.07 +/− 0.03,3.3 +/− 1.8,15.8 +/− 5.9,,,,,,,,
Nc1nc2ncc(CNc3ccc(C(=O)N[C@@H](CCCCNC(=O)[C@H](Cc4ccc5ccccc5c4)NC(=O)[C@H]4CC[C@H](CNC(=O)CCC(C(=O)O)N5CCN(CC(=O)O)CCN(CC(=O)O)CCN(CC(=O)O)CC5)CC4)C(=O)O)cc3)nc2c(=O)[nH]1 (stereo partly shown) [Compound 26],0.08 +/− 0.02,3.3 +/− 1.1,20.4 +/− 5.6,,,,,,,,
Nc1nc(O)c2nc(CNc3ccc(C(=O)N[C@@H](CCC(=O)NCCNC(=O)CCC(C(=O)O)N4CCN(CC(=O)O)CCN(CC(=O)O)CCN(CC(=O)O)CC4)C(=O)O)cc3)cnc2n1 (stereo partly shown) [Compound 28],,,,,,,0.098 +/− 0.003,1.2 +/− 0.1,2.1 +/− 0.3,0.03 +/− 0.001,
"Nc1nc2ncc(CNc3ccc(C(=O)N[C@@H](CCCCNC(=O)COc4ccc(C[C@H](NC(=O)CN5CCN(CC(=O)O)CCN(CC(=O)O)CCN(CC(=O)O)CC5)C(=O)O)cc4)C(=O)O)cc3)nc2c(=O)[nH]1 [Compound 38, Pte-Lys(DOTA-Tyr(O-carbonylmethyl)-OH)—OH]",,,,,,,,,,,"T/Kid ([2]; 177Lu chelate, 300 nmol/kg): 0.46 +/− 0.03; T/Liv ([2]; 177Lu chelate, 300 nmol/kg): 10.5 +/− 2.9; T/spl ([2]; 177Lu chelate, 300 nmol/kg): 69.9 +/− 7.9; T^2/kid ([2]; 177Lu chelate, 300 nmol/kg): 1.28 +/− 0.11"
"Nc1nc2ncc(CNc3ccc(C(=O)N[C@@H](CCCCNC(=O)COc4ccc(C[C@H](NC(=O)COc5ccc(C[C@H](NC(=O)CN6CCN(CC(=O)O)CCN(CC(=O)O)CCN(CC(=O)O)CC6)C(=O)O)cc5)C(=O)O)cc4)C(=O)O)cc3)nc2c(=O)[nH]1 [Compound 39, Pte-Lys(DOTA-(Tyr(O-carbonylmethyl)-OH)2)—OH]",,,,,,,,,,,"T/Kid ([2]; 177Lu chelate, 300 nmol/kg): 0.57 +/− 0.22; T/Liv ([2]; 177Lu chelate, 300 nmol/kg): 17.1 +/− 6.4; T/spl ([2]; 177Lu chelate, 300 nmol/kg): 83.8 +/− 29.7; T^2/kid ([2]; 177Lu chelate, 300 nmol/kg): 1.68 +/− 0.59"

# Reference: patent US20240252693A1, “FOLATE RECEPTOR-TARGETED RADIOTHERAPEUTIC AGENTS AND THEIR USE” (Novartis AG, priority 2021, published 2024)
